Assay results published in patent publication US4254128A, “2-Adamantyl hydrazines and biocidal compositions thereof” (Teva Pharmaceutical Industries Ltd., priority 1977, dated 1981).
Structures can show the parent of a compound that is named as a salt.

Experiments:
[1] = test system: Leptospira canicola Kipod 146; assay: Anti leptospiral activity (minimal inhibition concentration); type: cell-based; conditions: for MIC: Leptospira interrogans, KIPOD146, 240 h; for anti leptospiral activity: summary in words
Protocol: The tests were carried out under the following conditions:
Leptospira: Leptospira canicola Kipod 146
Inoculum: 1-10^5 cells/ml
Incubation time: 10 days, 28° C.
Evaluation: Direct count in dark field microscopy after 4,7 and 10 days.
2 Minimal+0.5% albumin (Pentex)
3 Korthof rich medium with 8% serum.
4 Korthof rich medium with 2% serum.

L. tropica amastigotes = assay: Anti leishmania test, amastigotes in peritoneal exudate cells in vitro; type: cell-based; conditions: 37° C.
Protocol: (§1) a. amastigotes in peritoneal exudate cells in Mc Coy's medium in vitro at 37° C.
+++=clearance of all parasites in 24 hours
++=clearance of all parasites in 48 hours
+=clearance of all parasites in 72 hours
±=Partial clearance of parasites in 72 hours or more
-=No activity against parasites.

Leishmania = assay: Anti leishmania tests, summary; type: cell-based, L. tropica; conditions: summary in words
Protocol: as §1
b. promastigotes in Mc Coy's medium in vitro at 27° C.

Pythium = assay: Antifungal activity in plants, growth on solid agar; type: cell-based; conditions: read-out: inhibiting concentration
Protocol: (§2) Antiplant fungal activity was tested as follows:
(§3) Inhibition of growth on solid agar mixed with various concentrations of the tested compounds.

S. rolfsii = assay: as above; type: cell-based; conditions: Agroathelia rolfsii, read-out: inhibiting concentration
Protocol: as §2, §3

Sclerotinia = assay: as above; type: cell-based; conditions: read-out: inhibiting concentration
Protocol: as §2, §3

| SMILES | MIC ([1]; Korthof + 2% serum) | MIC ([1]; Korthof + 8% serum) | MIC ([1]; minimal + Pentex (0.5% albumin)) | MIC ([1]; minimal medium) | anti leptospiral activity [1] | Leishmania amastigote activity score (L. tropica amastigotes; 10 μg) | Leishmania amastigote activity score (L. tropica amastigotes; 100 μg) | activity against Leishmania (Leishmania) | MIC (Pythium) | MIC (S. rolfsii) | MIC (Sclerotinia) |
| --- | --- | --- | --- | --- | --- | --- | --- | --- | --- | --- | --- |
| NNC1C2CC3CC(C2)CC1C3 (centres unmarked) [Example 18, 2-Adamantylhydrazine hydrochloride] | 12.5 µg/mL | 125 µg/mL | 6.25 µg/mL | 3.12 µg/mL | active | ++ (clearance of all parasites in 48 hours) | +++ (clearance of all parasites in 24 hours) | active | 50 µg/mL | 50 µg/mL | 50 µg/mL |
| CN(NC1C2CC3CC(C2)CC1C3)c1cccc(C(F)(F)F)c1 (centres unmarked) [Example 29, 1-(2'-Adamantyl)-2-methyl-2-(m-trifluoromethylphenyl)hydrazine hydrochloride hemihydrate] | – | 6.25 µg/mL | – | 6.25 µg/mL | active | – | – | – | 50 µg/mL | 50 µg/mL | 50 µg/mL |
